Experiments:
HCT116 WT cells = experiment: HCT116 WT (parent) cell line proliferation / cell viability (CellTiter-Glo, 6 days); type: cell-based; conditions: Homo sapiens, HCT-116, 144 h, 6 days treatment
Procedure, shortened: (§1)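 Isogenic HCT116 pair (parental and MTAP-knockout) in RPMI 1640 + 10% FBS, treated 6 days with 8–9-point 1:3 dilutions from 1 or 10 μM top, or 22-point 1:2 dilutions from 10 or 50 μM top. Viability by CellTiter-Glo luminescence; IC50 from 4-parameter logistic fit or sigmoidal fit with Hill slope fixed at −1.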

HCT116 MTAP null cells = experiment: HCT116 MTAP null cell line proliferation / cell viability (CellTiter-Glo, 6 days); type: cell-based; conditions: 144 h; HCT116 MTAP null cells, 6 days treatment, CellTiter-Glo cell viability; read-out: HCT-116 MTAP null IC50
Procedure, shortened: as §1

| Structure (SMILES) | IC50 (HCT116 WT cells) [nM] | IC50 (HCT116 MTAP null cells) [nM] |
| --- | --- | --- |
| CN(C(=O)c1cc2c(cc1Cl)nc(N)c1cnn(C)c12)[C@@H]1COc2cc(C(F)(F)F)ccc21 [Example 480, 4-amino-7-chloro-N,1-dimethyl-N-((3S)-6-(trifluoromethyl)-2,3-dihydro-1-benzofuran-3-yl)-1H-pyrazolo[4,3-c]quinoline-8-carboxamide] | 43 | 4 |
| CN(C(=O)c1cc2c(cc1Cl)nc(N)c1cnn(C)c12)[C@@H]1COc2cc(OC(F)(F)F)ccc21 [Example 481, 4-amino-7-chloro-N,1-dimethyl-N-((3S)-6-(trifluoromethoxy)-2,3-dihydro-1-benzofuran-3-yl)-1H-pyrazolo[4,3-c]quinoline-8-carboxamide] | 45 | 5 |
| CN(C(=O)c1cc2c(cc1F)nc(N)c1c2cnn1C)[C@@H]1COc2cc(Cl)c(Cl)cc21 [Example 483, 4-amino-N-((3S)-5,6-dichloro-2,3-dihydro-1-benzofuran-3-yl)-7-fluoro-N,3-dimethyl-3H-pyrazolo[3,4-c]quinoline-8-carboxamide] | 5280 | 81 |
| CN(C(=O)c1cc2c(cc1Cl)nc(N)c1c2cnn1C)[C@@H]1COc2cc(C(F)(F)F)ccc21 [Example 486, 4-amino-7-chloro-N,3-dimethyl-N-((3S)-6-(trifluoromethyl)-2,3-dihydro-1-benzofuran-3-yl)-3H-pyrazolo[3,4-c]quinoline-8-carboxamide] | 4880 | 78 |
| CN(C(=O)c1cc2c(cc1Cl)nc(N)c1c2cnn1C)[C@@H]1COc2cc(OC(F)(F)F)ccc21 [Example 487, 4-amino-7-chloro-N,3-dimethyl-N-((3S)-6-(trifluoromethoxy)-2,3-dihydro-1-benzofuran-3-yl)-3H-pyrazolo[3,4-c]quinoline-8-carboxamide] | 2870 | 47 |
| CN(C(=O)c1cc2c3c(c(N)nc2cn1)COC3)[C@@H]1COCc2cc(C#N)ccc21 [Example 489, 4-amino-N-((4S)-7-cyano-3,4-dihydro-1H-2-benzopyran-4-yl)-N-methyl-1,3-dihydrofuro[3,4-c][1,7]naphthyridine-8-carboxamide] | 2220 | 49 |
| CN(C(=O)c1cnc2nc(N)c3c(c2c1)COC3)[C@@H]1COCc2cc(C(F)(F)F)ccc21 [Example 493, 4-amino-N-methyl-N-((4S)-7-(trifluoromethyl)-3,4-dihydro-1H-2-benzopyran-4-yl)-1,3-dihydrofuro[3,4-c][1,8]naphthyridine-8-carboxamide] | 2050 | 92 |
| CN(C(=O)c1cc2c3c(c(N)nc2cc1Cl)COC3)[C@@H]1COCc2cc(C#N)ccc21 [Example 496, 4-amino-7-chloro-N-((4S)-7-cyano-3,4-dihydro-1H-2-benzopyran-4-yl)-N-methyl-1,3-dihydrofuro[3,4-c]quinoline-8-carboxamide] | 205 | 5 |
| Cc1noc2c1c(N)nc1ccc(C(=O)N(C)[C@@H]3COCc4cc(C#N)ccc43)cc12 [Example 497, 4-amino-N-((4S)-7-cyano-3,4-dihydro-1H-2-benzopyran-4-yl)-N,3-dimethyl[1,2]oxazolo[4,5-c]quinoline-8-carboxamide] | 19700 | 350 |
| CN(C(=O)c1ccc2nc(N)c3cnn(C)c3c2c1)[C@@H]1COCc2cc(C(F)(F)F)ccc21 [Example 499, 4-amino-N,1-dimethyl-N-((4S)-7-(trifluoromethyl)-3,4-dihydro-1H-2-benzopyran-4-yl)-1H-pyrazolo[4,3-c]quinoline-8-carboxamide] | 152 | 4 |
| CN(C(=O)c1ccc2nc(N)c3cnn(C)c3c2c1)[C@@H]1COCc2cc(C(F)(F)F)ncc21 [Example 500, 4-amino-N,1-dimethyl-N-((4S)-7-(trifluoromethyl)-3,4-dihydro-1H-pyrano[4,3-c]pyridin-4-yl)-1H-pyrazolo[4,3-c]quinoline-8-carboxamide] | 501 | 10 |

More lines, now with the values ahead:

| IC50 (HCT116 WT cells) [nM] | IC50 (HCT116 MTAP null cells) [nM] | Structure (SMILES) |
| --- | --- | --- |
| 682 | 13 | C[C@H]1OCc2c1c(N)nc1ccc(C(=O)N(C)[C@@H]3COCc4nc(C(F)(F)F)ccc43)cc21 [Example 488, (3R)-4-amino-N,3-dimethyl-N-((5S)-2-(trifluoromethyl)-5,8-dihydro-6H-pyrano[3,4-b]pyridin-5-yl)-1,3-dihydrofuro[3,4-c]quinoline-8-carboxamide] |
| 1030 | 33 | CN(C(=O)c1cc2c3c(c(N)nc2cn1)COC3)[C@@H]1COCc2cc(C(F)(F)F)ccc21 [Example 490, 4-amino-N-methyl-N-((4S)-7-(trifluoromethyl)-3,4-dihydro-1H-2-benzopyran-4-yl)-1,3-dihydrofuro[3,4-c][1,7]naphthyridine-8-carboxamide] |
| 2060 | 43 | CN(C(=O)c1cc2c3c(c(N)nc2cn1)COC3)[C@@H]1COCc2nc(C(F)(F)F)ccc21 [Example 491, 4-amino-N-methyl-N-((5S)-2-(trifluoromethyl)-5,8-dihydro-6H-pyrano[3,4-b]pyridin-5-yl)-1,3-dihydrofuro[3,4-c][1,7]naphthyridine-8-carboxamide] |
| 31400 | 706 | CN(C(=O)c1cc2c3c(c(N)nc2cn1)COC3)[C@@H]1COCc2cc(C(F)(F)F)ncc21 [Example 492, 4-amino-N-methyl-N-((4S)-7-(trifluoromethyl)-3,4-dihydro-1H-pyrano[4,3-c]pyridin-4-yl)-1,3-dihydrofuro[3,4-c][1,7]naphthyridine-8-carboxamide] |
| 671 | 23 | CN(C(=O)c1cc2c3c(c(N)nc2cc1F)COC3)[C@@H]1COCc2nc(C(F)(F)F)ccc21 [Example 494, 4-amino-7-fluoro-N-methyl-N-((5S)-2-(trifluoromethyl)-5,8-dihydro-6H-pyrano[3,4-b]pyridin-5-yl)-1,3-dihydrofuro[3,4-c]quinoline-8-carboxamide] |
| 386 | 15 | C[C@H]1OCc2c1c(N)nc1cc(F)c(C(=O)N(C)[C@@H]3COCc4nc(C(F)(F)F)ccc43)cc21 [Example 495, (3R)-4-amino-7-fluoro-N,3-dimethyl-N-((5S)-2-(trifluoromethyl)-5,8-dihydro-6H-pyrano[3,4-b]pyridin-5-yl)-1,3-dihydrofuro[3,4-c]quinoline-8-carboxamide] |
| 9110 | 185 | Cc1noc2c1c(N)nc1ccc(C(=O)N(C)[C@@H]3COCc4cc(C(F)(F)F)ccc43)cc12 [Example 498, 4-amino-N,3-dimethyl-N-((4S)-7-(trifluoromethyl)-3,4-dihydro-1H-2-benzopyran-4-yl)[1,2]oxazolo[4,5-c]quinoline-8-carboxamide] |
| 141 | 4 | CCN(C(=O)c1ccc2nc(N)c3cnn(C)c3c2c1)[C@@H]1COCc2nc(C(F)(F)F)ccc21 [Example 501, 4-amino-N-ethyl-1-methyl-N-((5S)-2-(trifluoromethyl)-5,8-dihydro-6H-pyrano[3,4-b]pyridin-5-yl)-1H-pyrazolo[4,3-c]quinoline-8-carboxamide] |
| 11800 | 414 | CCN(C(=O)c1ccc2nc(N)c3cnn(C)c3c2c1)[C@H]1COCc2nc(C(F)(F)F)ccc21 [Example 502, 4-amino-N-ethyl-1-methyl-N-((5R)-2-(trifluoromethyl)-5,8-dihydro-6H-pyrano[3,4-b]pyridin-5-yl)-1H-pyrazolo[4,3-c]quinoline-8-carboxamide] |
| 1260 | 18 | Cn1ncc2c(N)nc3ccc(C(=O)N(C4CC4)[C@@H]4COCc5nc(C(F)(F)F)ccc54)cc3c21 [Example 503, 4-amino-N-cyclopropyl-1-methyl-N-((5S)-2-(trifluoromethyl)-5,8-dihydro-6H-pyrano[3,4-b]pyridin-5-yl)-1H-pyrazolo[4,3-c]quinoline-8-carboxamide] |
| 144 | 4 | CC(C)CN(C(=O)c1ccc2nc(N)c3cnn(C)c3c2c1)[C@@H]1COCc2nc(C(F)(F)F)ccc21 [Example 504, 4-amino-1-methyl-N-(2-methylpropyl)-N-((5S)-2-(trifluoromethyl)-5,8-dihydro-6H-pyrano[3,4-b]pyridin-5-yl)-1H-pyrazolo[4,3-c]quinoline-8-carboxamide] |
| 12100 | 244 | CC(C)CN(C(=O)c1ccc2nc(N)c3cnn(C)c3c2c1)[C@H]1COCc2nc(C(F)(F)F)ccc21 [Example 505, 4-amino-1-methyl-N-(2-methylpropyl)-N-((5R)-2-(trifluoromethyl)-5,8-dihydro-6H-pyrano[3,4-b]pyridin-5-yl)-1H-pyrazolo[4,3-c]quinoline-8-carboxamide] |
| 34 | 4 | CN(C(=O)c1cc2c(cc1F)nc(N)c1cnn(C)c12)[C@@H]1COCc2cc(C(F)(F)F)ccc21 [Example 506, 4-amino-7-fluoro-N,1-dimethyl-N-((4S)-7-(trifluoromethyl)-3,4-dihydro-1H-2-benzopyran-4-yl)-1H-pyrazolo[4,3-c]quinoline-8-carboxamide] |
| 162 | 8 | CN(C(=O)c1cc2c(cc1F)nc(N)c1cnn(C)c12)[C@@H]1COCc2nc(C(F)(F)F)ccc21 [Example 507, 4-amino-7-fluoro-N,1-dimethyl-N-((5S)-2-(trifluoromethyl)-5,8-dihydro-6H-pyrano[3,4-b]pyridin-5-yl)-1H-pyrazolo[4,3-c]quinoline-8-carboxamide] |
| 43 | 5 | CCN(C(=O)c1cc2c(cc1F)nc(N)c1cnn(C)c12)[C@@H]1COCc2nc(C(F)(F)F)ccc21 [Example 508, 4-amino-N-ethyl-7-fluoro-1-methyl-N-((5S)-2-(trifluoromethyl)-5,8-dihydro-6H-pyrano[3,4-b]pyridin-5-yl)-1H-pyrazolo[4,3-c]quinoline-8-carboxamide] |
